From patent US8309546B2, “Morpholinopurine derivatives” (Daiichi Sankyo Company, Limited, priority 2008, dated 2012) come the findings set out here.

A value given as a limit tells only on which side of the number the result lay.

Assay [1] relates to human endometrial cancer cell strain AN3CA. Nature of the assay: Cell growth inhibition test (MTT), AN3CA. The following applies: AN3-CA, 72 h, 3 days culture, read-out: concentration exhibiting anti-cell effect (GI50). It is filed as cell-based. In outline:
(§1)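 Each cell strain is exposed to serially diluted compound for 3 days (37° C, 5% CO2), added one day after seeding at 5000 (AN3CA, HT29) or 1000 (IGROV1) cells/well. Living cells are quantified by MTT reduction over 4 h, absorbance at 540 nm, giving GI50 at 50% growth rate.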

Assay [2] addresses T1, human mTOR (His-tagged mTOR (1362C)) (Homo sapiens, UniProt P42345).
T1 construct: the 1362 to 2549 amino acid portion on the C terminus side of human mTOR; His tag (N); made in house
Nature of the assay: mTOR kinase activity inhibition assay. It is filed as biochemical. The following applies: HTRF, read-out: IC50 against mTOR. Summed up: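 Crude His-tagged mTOR (aa 1362–2549) from stable HEK293 cells, with 8 μg/ml biotinylated peptide in 50 mM HEPES pH 7.5, 20 mM MnCl2; compound diluted in 20 μM ATP solution, reaction 3 h at room temperature. Phospho-peptide detected by HTRF (anti-phospho-S6K Thr389 cryptate/streptavidin-XL665, overnight at 4°C), 665/620 nm ratio. IC50 derived from curve fit of % inhibition.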

Assay [3] relates to human ovary cancer cell strain IGROV1. Kind of assay: Cell growth inhibition test (MTT), IGROV1. Conditions: IGROV-1, 72 h, IGROV1, 3 days culture, read-out: concentration exhibiting anti-cell effect (GI50). It is filed as cell-based. In outline:
as §1

A further assay concerns the target PI3Kα (Homo sapiens, UniProt P42336). Nature of the assay: PI3K kinase activity inhibition assay. Conditions: Kinase-Glo Plus ATP detection, read-out: IC50 against PI3K. Format: biochemical. In outline:
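PI3Kα (50 nM solution) was reacted with 30 μM ATP and 45 μM PIP2 solutions, each in HEPES pH 7.4 with MgCl2 and DTT, for 2 h at room temperature. Remaining ATP was measured by Kinase-Glo Plus luminescence, and inhibition was derived from ATP consumed. IC50 was taken from curve fitting of the serial dilutions.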

Assay [4] concerns human colon cancer cell strain HT29. Nature of the assay: Cell growth inhibition test (MTT), HT29. The following applies: HT-29, 72 h, HT29, 3 days culture, read-out: concentration exhibiting anti-cell effect (GI50). Format: cell-based. In outline:
as §1

PI3Kα, sequence (P42336 whole entry, species assumed): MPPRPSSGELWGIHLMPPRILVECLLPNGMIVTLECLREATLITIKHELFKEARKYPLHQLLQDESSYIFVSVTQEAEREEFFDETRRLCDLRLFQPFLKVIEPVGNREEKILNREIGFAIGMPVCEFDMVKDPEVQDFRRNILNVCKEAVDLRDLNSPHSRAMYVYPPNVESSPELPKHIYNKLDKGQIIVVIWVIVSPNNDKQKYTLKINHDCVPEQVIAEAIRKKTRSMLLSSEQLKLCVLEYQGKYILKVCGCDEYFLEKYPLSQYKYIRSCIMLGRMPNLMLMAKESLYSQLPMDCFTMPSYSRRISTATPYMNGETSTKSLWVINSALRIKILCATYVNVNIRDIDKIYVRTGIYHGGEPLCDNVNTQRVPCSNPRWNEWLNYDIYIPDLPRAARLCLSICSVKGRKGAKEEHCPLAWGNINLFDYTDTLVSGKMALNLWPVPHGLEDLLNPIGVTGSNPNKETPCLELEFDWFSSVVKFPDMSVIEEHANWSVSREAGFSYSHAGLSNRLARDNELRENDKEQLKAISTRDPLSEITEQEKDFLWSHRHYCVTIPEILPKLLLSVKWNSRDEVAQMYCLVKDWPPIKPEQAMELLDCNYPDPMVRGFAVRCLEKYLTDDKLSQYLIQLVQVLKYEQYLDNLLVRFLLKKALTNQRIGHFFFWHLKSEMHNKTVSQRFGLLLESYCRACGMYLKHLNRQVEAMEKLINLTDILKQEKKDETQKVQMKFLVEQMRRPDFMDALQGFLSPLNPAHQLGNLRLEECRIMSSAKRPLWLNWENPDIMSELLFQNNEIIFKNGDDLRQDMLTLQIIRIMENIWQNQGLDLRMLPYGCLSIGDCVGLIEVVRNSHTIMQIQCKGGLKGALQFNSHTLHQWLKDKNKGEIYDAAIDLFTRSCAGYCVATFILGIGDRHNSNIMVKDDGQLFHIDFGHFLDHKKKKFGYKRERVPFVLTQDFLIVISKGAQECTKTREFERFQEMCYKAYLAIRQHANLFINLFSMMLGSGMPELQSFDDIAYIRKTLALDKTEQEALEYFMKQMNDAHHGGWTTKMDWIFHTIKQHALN
PI3Kα, sequence (P27986 whole entry partner, species assumed): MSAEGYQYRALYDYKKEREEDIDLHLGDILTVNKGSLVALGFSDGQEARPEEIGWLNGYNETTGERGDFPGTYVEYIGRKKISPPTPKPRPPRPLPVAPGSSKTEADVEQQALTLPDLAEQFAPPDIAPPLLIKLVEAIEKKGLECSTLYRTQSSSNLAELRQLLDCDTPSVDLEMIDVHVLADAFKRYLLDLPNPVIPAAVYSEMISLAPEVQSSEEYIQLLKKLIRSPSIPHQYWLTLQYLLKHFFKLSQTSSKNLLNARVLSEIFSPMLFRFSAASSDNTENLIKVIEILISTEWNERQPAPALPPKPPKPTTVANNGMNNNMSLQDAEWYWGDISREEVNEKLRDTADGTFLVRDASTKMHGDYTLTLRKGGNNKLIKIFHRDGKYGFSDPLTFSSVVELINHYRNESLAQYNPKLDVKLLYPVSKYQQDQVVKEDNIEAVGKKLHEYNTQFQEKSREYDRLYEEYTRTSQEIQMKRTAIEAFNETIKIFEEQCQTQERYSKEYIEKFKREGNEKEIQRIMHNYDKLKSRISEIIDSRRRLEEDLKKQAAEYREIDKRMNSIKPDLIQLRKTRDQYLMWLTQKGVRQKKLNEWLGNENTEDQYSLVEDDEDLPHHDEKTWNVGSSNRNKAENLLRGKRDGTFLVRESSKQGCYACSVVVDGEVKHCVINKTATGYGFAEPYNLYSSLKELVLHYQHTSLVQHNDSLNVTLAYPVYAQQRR
T1 sequence (P42345 1362-2549): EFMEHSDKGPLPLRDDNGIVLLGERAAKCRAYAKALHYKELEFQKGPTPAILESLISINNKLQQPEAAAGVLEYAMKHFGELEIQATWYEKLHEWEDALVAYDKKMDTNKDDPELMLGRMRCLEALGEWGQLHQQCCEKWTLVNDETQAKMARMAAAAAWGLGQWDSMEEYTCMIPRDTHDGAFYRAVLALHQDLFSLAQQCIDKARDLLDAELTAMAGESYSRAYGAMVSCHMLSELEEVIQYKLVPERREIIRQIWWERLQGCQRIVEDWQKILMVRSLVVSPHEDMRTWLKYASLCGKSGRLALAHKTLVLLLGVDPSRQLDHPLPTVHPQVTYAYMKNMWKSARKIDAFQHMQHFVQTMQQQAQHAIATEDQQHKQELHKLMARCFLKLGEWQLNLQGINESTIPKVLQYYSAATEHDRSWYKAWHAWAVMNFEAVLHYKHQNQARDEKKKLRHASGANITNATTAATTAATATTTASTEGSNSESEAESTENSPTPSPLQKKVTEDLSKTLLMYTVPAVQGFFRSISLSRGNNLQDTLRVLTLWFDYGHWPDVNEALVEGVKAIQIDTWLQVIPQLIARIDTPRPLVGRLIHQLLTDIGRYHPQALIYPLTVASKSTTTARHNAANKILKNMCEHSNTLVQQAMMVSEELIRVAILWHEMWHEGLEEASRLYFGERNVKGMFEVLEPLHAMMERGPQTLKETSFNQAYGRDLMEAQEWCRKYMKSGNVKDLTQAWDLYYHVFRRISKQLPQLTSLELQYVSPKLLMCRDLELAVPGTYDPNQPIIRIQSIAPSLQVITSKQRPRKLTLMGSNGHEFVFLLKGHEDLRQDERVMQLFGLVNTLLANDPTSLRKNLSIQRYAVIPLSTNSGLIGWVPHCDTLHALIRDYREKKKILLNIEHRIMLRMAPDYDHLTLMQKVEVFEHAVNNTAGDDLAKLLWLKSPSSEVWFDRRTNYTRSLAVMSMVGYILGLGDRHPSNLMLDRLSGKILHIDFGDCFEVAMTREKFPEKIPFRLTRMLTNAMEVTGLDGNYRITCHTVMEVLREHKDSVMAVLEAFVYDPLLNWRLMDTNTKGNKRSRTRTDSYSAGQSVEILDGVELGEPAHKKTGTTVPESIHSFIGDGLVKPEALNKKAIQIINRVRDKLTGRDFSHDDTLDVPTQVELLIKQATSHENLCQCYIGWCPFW

In the case of `Cc1nc(N)ncc1-c1nc(N2CCOCC2)c2nc(N3CCC(N(C)C)C3)n(CC3CC3)c2n1` (stereo not drawn) [Example 33, 5-{9-(Cyclopropylmethyl)-8-[3-(dimethylamino)pyrrolidin-1-yl]-6-morpholin-4-yl-9H-purin-2-yl}-4-methylpyrimidin-2-amine], the GI50 in assay [1], in assay [3] and in assay [4] was ≤ 5000 nM each time. For the same compound, the results for the IC50 (in assay [2]; at PI3Kα) were ≥ 500 nM and 20 to 50 nM, respectively.
For `Cc1nc(N)ncc1-c1nc(N2CCOCC2)c2nc(N3CCC(N(C)S(C)(=O)=O)C3)n(CC3CC3)c2n1` (stereo not drawn) [Example 34, N-{1-[2-(2-Amino-4-methylpyrimidin-5-yl)-9-(cyclopropylmethyl)-6-morpholin-4-yl-9H-purin-8-yl]pyrrolidin-3-yl}-N-methylmethanesulfonamide], the GI50 in assay [1], in assay [3] and in assay [4] was ≤ 5000 nM in each case. For the same compound, the IC50 was 100 to 500 nM in assay [2] and 10 to 20 nM at PI3Kα.
As to `Cc1nc(N)ncc1-c1nc(N2CCOCC2)c2nc(N3CCC(NS(C)(=O)=O)C3)n(CC3CC3)c2n1` (stereo not drawn) [Example 35, N-{1-[2-(2-Amino-4-methylpyrimidin-5-yl)-9-(cyclopropylmethyl)-6-morpholin-4-yl-9H-purin-8-yl]pyrrolidin-3-yl}methanesulfonamide], the GI50 in assay [1], in assay [3] and in assay [4] was ≤ 5000 nM in each case. Besides, the IC50 in assay [2] is ≥ 500 nM; on PI3Kα, 10 to 20 nM.
Consider `Cc1nc(N)ncc1-c1nc(N2CCOCC2)c2nc(N3CCC(C(N)=O)CC3)n(CC3CC3)c2n1` [Example 36, 1-[2-(2-Amino-4-methylpyrimidin-5-yl)-9-(cyclopropylmethyl)-6-morpholin-4-yl-9H-purin-8-yl]piperidine-4-carboxamide], for which the GI50 in assay [1], in assay [3] and in assay [4] was ≤ 5000 nM each time. Further, the values for the IC50 (in assay [2]; at PI3Kα) were 100 to 500 nM and < 10 nM, respectively.
For the compound `Cc1nc(N)ncc1-c1nc(N2CCOCC2)c2nc(N3CCC(CO)CC3)n(CC3CC3)c2n1` [Example 37, {1-[2-(2-Amino-4-methylpyrimidin-5-yl)-9-(cyclopropylmethyl)-6-morpholin-4-yl-9H-purin-8-yl]piperidin-4-yl}methanol], the GI50 in assay [1], in assay [3] and in assay [4] was ≤ 5000 nM in each case. The IC50 was in the range of 100 to 500 nM in assay [2] and 10 to 20 nM at PI3Kα.
As for `C[C@@H]1CN(c2nc3c(N4CCOCC4)nc(-c4cnc(N)nc4)nc3n2CC2CC2)C[C@H](C)N1S(C)(=O)=O` [Example 38, 5-{9-(Cyclopropylmethyl)-8-[cis-3,5-dimethyl-4-(methylsulfonyl)piperazin-1-yl]-6-morpholin-4-yl-9H-purin-2-yl}pyrimidin-2-amine], the GI50 in assay [1], in assay [3] and in assay [4] was ≤ 5000 nM each time. Also, the results for the IC50 (in assay [2]; at PI3Kα) were 10 to 30 nM and 10 to 20 nM, respectively.
As to `CNc1ncc(-c2nc(N3CCOCC3)c3nc(N4CCOCC4)n(CC4CC4)c3n2)cn1` [Example 39, 5-[9-(Cyclopropylmethyl)-6,8-dimorpholin-4-yl-9H-purin-2-yl]-N-methylpyrimidin-2-amine], the GI50 in assay [1], in assay [3] and in assay [4] was ≤ 5000 nM each time. In addition, the IC50 is 30 to 100 nM in assay [2] and < 10 nM at PI3Kα.
For `CN(C)CC(=O)N1CCN(c2nc3c(N4CCOCC4)nc(-c4cnc(N)nc4)nc3n2CC2CC2)CC1` [Example 40, 5-[9-(Cyclopropylmethyl)-8-{4-[(dimethylamino)acetyl]piperazin-1-yl}-6-morpholin-4-yl-9H-purin-2-yl]pyrimidin-2-amine], the GI50 in assay [1], in assay [3] and in assay [4] was ≤ 5000 nM throughout. Moreover, the values for the IC50 (in assay [2]; at PI3Kα) were 100 to 500 nM and 10 to 20 nM, respectively.
`CNCC(=O)N1CCN(c2nc3c(N4CCOCC4)nc(-c4cnc(N)nc4)nc3n2CC2CC2)CC1` [Example 41, 5-[9-(Cyclopropylmethyl)-8-{4-[(methylamino)acetyl]piperazin-1-yl}-6-morpholin-4-yl-9H-purin-2-yl]pyrimidin-2-amine]: the GI50 in assay [1], in assay [3] and in assay [4] was ≤ 5000 nM in each case. For the same compound, the IC50 in assay [2] is 30 to 100 nM; at PI3Kα, < 10 nM.
Turning to `NCC(=O)N1CCN(c2nc3c(N4CCOCC4)nc(-c4cnc(N)nc4)nc3n2CC2CC2)CC1` [Example 42, 5-{8-[4-(Aminoacetyl)piperazin-1-yl]-9-(cyclopropylmethyl)-6-morpholin-4-yl-9H-purin-2-yl}pyrimidin-2-amine], the GI50 in assay [1], in assay [3] and in assay [4] was ≤ 5000 nM each time. The concentration for half-maximal inhibition (IC50) in assay [2] was 30 to 100 nM; at PI3Kα it was < 10 nM.
As for `CNc1ncc(-c2nc(N3CCOCC3)c3nc(N4CCN(S(C)(=O)=O)CC4)n(CC4CC4)c3n2)c(C)n1` [Example 43], the GI50 in assay [1], in assay [3] and in assay [4] was ≤ 5000 nM throughout. The results for the IC50 (in assay [2]; at PI3Kα) were 100 to 500 nM and 10 to 20 nM, respectively.
For the compound `CC(C)Cn1c(N2CCN(C(=O)N(C)C)CC2)nc2c(N3CCOCC3)nc(-c3cnc(N)nc3)nc21` [Example 45, 4-[2-(2-Aminopyrimidin-5-yl)-9-isobutyl-6-morpholin-4-yl-9H-purin-8-yl]-N,N-dimethylpiperazine-1-carboxamide], the GI50 in assay [1], in assay [3] and in assay [4] was ≤ 5000 nM throughout. The half-maximal inhibitory concentration (IC50) in assay [2] is 30 to 100 nM; on PI3Kα it was 20 to 50 nM.
For the compound `CC(C)n1c(N2CCN(S(C)(=O)=O)CC2)nc2c(N3CCOCC3)nc(-c3cnc(N)nc3)nc21` [Example 46, 5-{9-Isopropyl-8-[4-(methylsulfonyl)piperazin-1-yl]-6-morpholin-4-yl-9H-purin-2-yl}pyrimidin-2-amine], the GI50 in assay [1], in assay [3] and in assay [4] was ≤ 5000 nM in each case. The concentration for half-maximal inhibition (IC50) in assay [2] is 30 to 100 nM; on PI3Kα, 20 to 50 nM.
On to `CC(C)Cn1c(N2CCCN(S(C)(=O)=O)CC2)nc2c(N3CCOCC3)nc(-c3cnc(N)nc3)nc21` [Example 49, 5-{9-Isobutyl-8-[4-(methylsulfonyl)-1,4-diazepan-1-yl]-6-morpholin-4-yl-9H-purin-2-yl}pyrimidin-2-amine], for which the GI50 in assay [1], in assay [3] and in assay [4] was ≤ 5000 nM in each case. The IC50 is 10 to 30 nM in assay [2] and < 10 nM on PI3Kα.
As for `CC(C)Cn1c(N2CCN[C@@H](C)C2)nc2c(N3CCOCC3)nc(-c3cnc(N)nc3)nc21` [Example 51, 5-{9-Isobutyl-8-[(3S)-3-methylpiperazin-1-yl]-6-morpholin-4-yl-9H-purin-2-yl}pyrimidin-2-amine], the GI50 in assay [1], in assay [3] and in assay [4] was ≤ 5000 nM each time. The figures for the IC50 (in assay [2]; on PI3Kα) were 10 to 30 nM and 10 to 20 nM, respectively.
Consider `CC(C)Cn1c(N2CCN[C@H](C)C2)nc2c(N3CCOCC3)nc(-c3cnc(N)nc3)nc21` [Example 52, 5-{9-Isobutyl-8-[(3R)-3-methylpiperazin-1-yl]-6-morpholin-4-yl-9H-purin-2-yl}pyrimidin-2-amine], for which the GI50 in assay [1], in assay [3] and in assay [4] was ≤ 5000 nM throughout. Moreover, the half-maximal inhibitory concentration (IC50) in assay [2] was 30 to 100 nM; at PI3Kα, < 10 nM.
Regarding `Nc1ncc(-c2nc(N3CCOCC3)c3nc(N4CCN(C(=O)Cn5ccnc5)CC4)n(CC4CC4)c3n2)cn1` [Example 56, 5-{9-(Cyclopropylmethyl)-8-[4-(1H-imidazol-1-ylacetyl)piperazin-1-yl]-6-morpholin-4-yl-9H-purin-2-yl}pyrimidin-2-amine], the GI50 in assay [1], in assay [3] and in assay [4] was ≤ 5000 nM in each case. The IC50 in assay [2] was 10 to 30 nM; at PI3Kα it was < 10 nM.
As for `C[C@H]1CN(c2nc3c(N4CCOCC4)nc(-c4cnc(N)nc4)nc3n2CC(F)(F)F)CCN1` [Example 58, 5-{8-[(3S)-3-Methylpiperazin-1-yl]-6-morpholin-4-yl-9-(2,2,2-trifluoroethyl)-9H-purin-2-yl}pyrimidin-2-amine], the GI50 in assay [1], in assay [3] and in assay [4] was ≤ 5000 nM in each case. Besides, the IC50 in assay [2] was 10 to 30 nM; at PI3Kα, < 10 nM.
